US11878967B2, “Crystalline forms of 1-(4-{[6-amino-5-(4-phenoxy-phenyl)-pyrimidin-4-ylamino]-methyl}-4-fluoro-piperidin-1-yl)-propenone, salt forms thereof, and processes to obtain” (Merck Patent GmbH, priority 2018, dated 2024)
Converted amounts (≈) assume the structure as drawn. Counter-ions that a name gives are not always drawn. Like-named read-outs stand apart in the source and are kept apart here.

How the values were obtained:
Format in all cases: physicochemical
[1] = Water Vapour Sorption isotherm (25° C.), DVS system from SMS
Method: DSC scan of form A1 was acquired on a Mettler-Toledo DSC 1 with a heating rate of 5 K/min, using nitrogen purge gas at 50 mL/min. TGA scan of form A1 was acquired on a Mettler-Toledo TGA 851 with a heating rate of 5 K/min, using nitrogen purge gas at 50 mL/min. […] Eur. Criteria (section 5.11.). Water Vapour Sorption isotherm was acquired on a DVS-Intrinsic system from SMS. […] Dissolution level of form A1 in Fasted-State Simulated Intestinal Fluid [FaSSIF, pH 6.5] at 37° C. was determined to be approx. 17 μg/mL after 2 h (see example 7). […]
All forms were characterized according to standard methods which are found in e.g. Rolf Hilfiker, ‘Polymorphism in the Pharmaceutical Industry’, Wiley-VCH. Weinheim 2006 (Chapter 6: X-Ray Diffraction, Chapter 6: Vibrational Spectroscopy, Chapter 3: Thermal Analysis, Chapter 9: Water Vapour Sorption, and references therein); and H. G. Brittain, ‘Polymorphism in Pharmaceutical Solids, Vol. 95, Marcel Dekker Inc., New York 1999 (Chapter 6 and references therein).

[2] = Mini-dissolution in FaSSIF medium pH 6.5 at 37° C.; conditions: for Dissolution levels in FaSSIF pH 6.5: 37° C.; for Dissolution level (2 h) in FaSSIF, factor higher than A1: compared to crystalline neat form A1
Method: Approximately 10-20 mg of 1-(4-{[6-Amino-5-(4-phenoxy-phenyl)-pyrimidin-4-ylamino]-methyl}-4-fluoro-piperidin-1-yl)-propenone were weighed into glass vials. 7 mL of FaSSIF medium (pH 6.5, prewarmed to 37° C.) were added and the suspension was shaken at 450 rpm at 37° C. After 30 min, 60 min and 120 min, 1 mL suspension was withdrawn and filtered through a 0.2 μm syringe filter. Clear filtrate was analysed by HPLC after suitable dilution to measure the amount of API dissolved.

[3] = Thermodynamic solubility (24 h) at 37° C. of free base forms; conditions: for solubility thermodynamic at 24 h: 37 °C, thermodynamic from solid
Method: Approximately 10-20 mg of 1-(4-{[6-Amino-5-(4-phenoxy-phenyl)-pyrimidin-4-ylamino]-methyl}-4-fluoro-piperidin-1-yl)-propenone were weighed into a 4 mL glass vial. 1 mL of FaSSIF medium (pH 6.5) or USP Phosphate buffer pH 7.4 was added and the suspension was shaken for 24 h at 450 rpm at 37° C. After 1 h, 6 h and after 24 h the vials were checked for presence of undissolved compound and the pH was measured. If necessary, the pH was adjusted after 1 h and 6 h. The solid liquid separation was carried out using 1 mL syringe and 0.2 μm syringe filter. Clear filtrate was analysed by HPLC after suitable dilution to measure the amount of API dissolved.

[4] = relative humidity range 0-80% rh
[5] = relative humidity range 90-98% rh

SMILES | Hygroscopicity classification acc. to Ph. Eur. criteria (section 5.11.) [1] | Water uptake levels [1, 4] [% m/m] | Water uptake levels [1, 5] [% m/m] | Dissolution levels in FaSSIF pH 6.5 ([2]; 30 min) [μg/mL] | Dissolution levels in FaSSIF pH 6.5 ([2]; 60 min) [μg/mL] | also measured
C=CC(=O)N1CCC(F)(CNc2ncnc(N)c2-c2ccc(Oc3ccccc3)cc2)CC1 [HBr-NF1, 1-(4-{[6-Amino-5-(4-phenoxy-phenyl)-pyrimidin-4-ylamino]-methyl}-4-fluoro-piperidin-1-yl)-propenone] | slightly hygroscopic | ≤ 1 | ≤ 5 | 23 | 27 | Dissolution level (2 h) in FaSSIF, factor higher than A1 [2]: ~3
C=CC(=O)N1CCC(F)(CNc2ncnc(N)c2-c2ccc(Oc3ccccc3)cc2)CC1 [Oxalate-NF1, 1-(4-{[6-Amino-5-(4-phenoxy-phenyl)-pyrimidin-4-ylamino]-methyl}-4-fluoro-piperidin-1-yl)-propenone] | slightly hygroscopic | ≤ 1 | ≤ 5 | 22 | 39 | Dissolution level (2 h) in FaSSIF, factor higher than A1 ([2]; listed as Oxalate salt form NF1): ~4
C=CC(=O)N1CCC(F)(CNc2ncnc(N)c2-c2ccc(Oc3ccccc3)cc2)CC1 [Free base form A1, 1-(4-{[6-Amino-5-(4-phenoxy-phenyl)-pyrimidin-4-ylamino]-methyl}-4-fluoro-piperidin-1-yl)-propenone] | slightly hygroscopic | ≤ 1 | ≤ 2 | 16 | 17 | solubility thermodynamic at 24 h ([3]; FaSSIF (Fasted-State Simulated Intestinal Fluid), pH 6.5, fassif, Fasted-State Simulated Intestinal Fluid pH 6.5, read-out: Thermodynamic solubility FaSSIF pH 6.5): ~17 µg/mL (≈ 38 µM); solubility thermodynamic at 24 h ([3]; USP Phosphate buffer, pH 7.4, aqueous buffer, USP Phosphate buffer pH 7.4, read-out: Thermodynamic solubility PBS buffer 7.4): ~1 µg/mL (≈ 2.23 µM); Dissolution levels in FaSSIF pH 6.5 ([2]; 120 min (2 h)): 17 μg/mL; Dissolution levels in FaSSIF pH 6.5 ([2]; 120 min (2 h), listed as form A1): approx. 17 μg/mL
C=CC(=O)N1CCC(F)(CNc2ncnc(N)c2-c2ccc(Oc3ccccc3)cc2)CC1 [Fumarate-NF1, 1-(4-{[6-Amino-5-(4-phenoxy-phenyl)-pyrimidin-4-ylamino]-methyl}-4-fluoro-piperidin-1-yl)-propenone] | slightly hygroscopic | ≤ 1 | ≥ 5 | 14 | 18 | Dissolution level (2 h) in FaSSIF, factor higher than A1 ([2]; listed as Fumarate salt form NF1): ~2

The next lines start with results.

Hygroscopicity classification acc. to Ph. Eur. criteria (section 5.11.) [1] | Water uptake levels [1, 4] [% m/m] | Water uptake levels [1, 5] [% m/m] | Dissolution levels in FaSSIF pH 6.5 ([2]; 30 min) [μg/mL] | Dissolution levels in FaSSIF pH 6.5 ([2]; 60 min) [μg/mL] | SMILES | also measured
slightly hygroscopic | ≤ 1 | ≥ 5 | – | – | C=CC(=O)N1CCC(F)(CNc2ncnc(N)c2-c2ccc(Oc3ccccc3)cc2)CC1 [HBr-NF2, 1-(4-{[6-Amino-5-(4-phenoxy-phenyl)-pyrimidin-4-ylamino]-methyl}-4-fluoro-piperidin-1-yl)-propenone] | –
slightly hygroscopic | ≤ 1 | ≤ 5 | – | – | C=CC(=O)N1CCC(F)(CNc2ncnc(N)c2-c2ccc(Oc3ccccc3)cc2)CC1 [Maleate-NF1, 1-(4-{[6-Amino-5-(4-phenoxy-phenyl)-pyrimidin-4-ylamino]-methyl}-4-fluoro-piperidin-1-yl)-propenone] | –
slightly hygroscopic | ≤ 1 | ≤ 5 | – | – | C=CC(=O)N1CCC(F)(CNc2ncnc(N)c2-c2ccc(Oc3ccccc3)cc2)CC1 [Mesylate-NF1, 1-(4-{[6-Amino-5-(4-phenoxy-phenyl)-pyrimidin-4-ylamino]-methyl}-4-fluoro-piperidin-1-yl)-propenone] | –
slightly hygroscopic | ≤ 1 | ≤ 2 | 7 | 8 | C=CC(=O)N1CCC(F)(CNc2ncnc(N)c2-c2ccc(Oc3ccccc3)cc2)CC1 [Free base form A2, 1-(4-{[6-Amino-5-(4-phenoxy-phenyl)-pyrimidin-4-ylamino]-methyl}-4-fluoro-piperidin-1-yl)-propenone] | Thermodynamic solubility FaSSIF pH 6.5 ([3]; Fasted-State Simulated Intestinal Fluid pH 6.5): 10 μg/mL; Thermodynamic solubility FaSSIF pH 6.5 ([3]; Fasted-State Simulated Intestinal Fluid pH 6.5, listed as form A2): approx. 10 μg/mL; Thermodynamic solubility PBS buffer 7.4 ([3]; USP Phosphate buffer pH 7.4): 2 µg/mL; Thermodynamic solubility PBS buffer 7.4 ([3]; USP Phosphate buffer pH 7.4, listed as form A2): approx. 2 μg/mL; Dissolution levels in FaSSIF pH 6.5 ([2]; 120 min (2 h)): 8 μg/mL; Dissolution levels in FaSSIF pH 6.5 ([2]; 120 min (2 h), listed as form A2): approx. 8 μg/mL
slightly hygroscopic | ≤ 1 | ≤ 5 | 55 | 43 | C=CC(=O)N1CCC(F)(CNc2ncnc(N)c2-c2ccc(Oc3ccccc3)cc2)CC1 [HCl-NF1, 1-(4-{[6-Amino-5-(4-phenoxy-phenyl)-pyrimidin-4-ylamino]-methyl}-4-fluoro-piperidin-1-yl)-propenone] | Dissolution level (2 h) in FaSSIF, factor higher than A1 [2]: ~4
